Reference: PubChem BioAssay (NCI)
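48-hour exposure; five concentrations; linearly interpolated endpoints. At the GI50, growth is halved. TGI marks complete inhibition of growth.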

Tests used:
Assay in all cases: growth of human tumour cells (NCI), 48 h
SK-OV-3 ovarian = tested on: SK-OV-3 ovarian
OVCAR-3 ovarian = tested on: OVCAR-3 ovarian
SF-295 CNS = tested on: SF-295 CNS
MOLT-4 leukemia = tested on: MOLT-4 leukemia
TK-10 renal = tested on: TK-10 renal
CCRF-CEM leukemia = tested on: CCRF-CEM leukemia
SF-539 CNS = tested on: SF-539 CNS
M14 melanoma = tested on: M14 melanoma
HT29 colon = tested on: HT29 colon
MCF7 breast = tested on: MCF7 breast

Structure (SMILES)	TGI (SK-OV-3 ovarian) [µM]	TGI (OVCAR-3 ovarian) [µM]	TGI (SF-295 CNS) [µM]	TGI (MOLT-4 leukemia) [µM]	TGI (TK-10 renal) [µM]	TGI (CCRF-CEM leukemia) [µM]	TGI (SF-539 CNS) [µM]	TGI (M14 melanoma) [µM]	TGI (HT29 colon) [µM]	TGI (MCF7 breast) [µM]	GI50 (OVCAR-3 ovarian) [µM]	GI50 (SF-295 CNS) [µM]	GI50 (MOLT-4 leukemia) [µM]	GI50 (TK-10 renal) [µM]	GI50 (CCRF-CEM leukemia) [µM]	GI50 (MCF7 breast) [µM]	GI50 (HT29 colon) [µM]	GI50 (SF-539 CNS) [µM]	GI50 (M14 melanoma) [µM]	GI50 (SK-OV-3 ovarian) [µM]
Cc1c(C)c2cc3c(=O)c(CCl)coc3c(C)c2oc1=O	> 100	> 100	> 100	> 100	> 100	> 100	> 100	> 100												
Cn1cc(-c2ccc3c4ccccc4n(C)c3c2)c2ccccc21	> 100	> 100	> 100	> 100	> 100	> 100	> 100	> 100	> 100											
C=CC[P@]1(=O)O[C@H](c2ccccc2)C(C)N1C(C)C (some centres undefined)	> 100	> 100	> 100	> 100	> 100	> 100	> 100	> 100	> 100											
O=C(O)CCC(O)=C1S(=O)(=O)OCCOS1(=O)=O	> 100	> 100	> 100	> 100	> 100		> 100	> 100	> 100	> 100										
OCc1c(-c2cccs2)oc(-c2cccs2)c1CO		> 100	> 100	> 100	56.7	> 100	> 100	> 100	> 100	> 100	48.1	27.7	27.9	10.2	48.7	1.62	41	50.9	47.8	
Cc1nc(-n2nc(-c3ccccc3)cc2-c2ccccc2)sc1C(=O)CC(=O)C(=O)Nc1ccc(Cl)c(Cl)c1	> 100	> 100	> 100	> 100	> 100	> 100	> 100	> 100	> 100											
COc1ccc2c(c1OC)C(=O)C2	> 100		> 100	> 100	> 100	> 100		> 100	> 100											
CN(C)Cc1ccc(NC(=O)c2cncc(C#Cc3cnc(N)c4ncccc34)c2)cc1C(F)(F)F		3.8	2.98	2.75	3.31	3.57	2.66	1.33	1.86	3.33	1.98	1.59	0.701	1.81	1.34	1.63	0.133	1.36	0.0802	
N.N.N.N.N#N.N#N.[Cl-].[Os+6]		> 100	> 100		> 100		> 100	> 100			> 100	> 100		> 100				> 100	> 100	
CC(=O)OC1(Sc2ccccc2)CC2[C@H]3COC(C)(C)O[C@H]3CC[C@@]2(C)CC1=O (some centres undefined)	95.7	> 100	> 100	> 100	> 100		95.9	> 100	> 100											
C=CCCC(O)c1cc(C)c(O)c(C)c1 (centres undefined)	> 100	> 100	> 100	> 100	> 100	> 100	> 100	> 100												
CC(=O)c1cc2c(Br)cccc2oc1=O		> 100	> 100	> 100	> 100	> 100	> 100	> 100	> 100	> 100										
COc1ccc(-c2nc(NC(=O)CS(=O)(=O)c3ccc(F)cc3)sc2C)cc1	> 100	39.9	50.1	> 100	81.2		37.2	55.7	39.4	> 100	15.7	18.8	14.5	28.9		16.3	11	16.9	19.1	24.1
CC1=CC(=O)NP(=O)(Oc2ccc(Cl)cc2)N1 (centres undefined)	> 100	> 100	> 100	> 100	> 100	> 100	> 100	> 100	> 100											
CN(C)CCNC(=O)c1ccc2c(c1)oc1cc3ccccc3c(=O)n12	30.9	30.4	32.5	> 100	31.4			32.6	40.4		13.2	14.2	97.7	12.9			18.1		18.6	13.8
S=C1SCC2CCCN12 (centres undefined)	> 100		> 100	> 100	> 100	> 100	> 100	> 100	> 100											
CC(=O)/C=C1\CC(=O)N(C)c2ccccc2N1	> 100	> 100	> 100	> 100	> 100	> 100	> 100	> 100	> 100											
O=C(O)c1cccc([As]=[As]c2cccc(C(=O)O)c2)c1 (centres undefined)		> 100	> 100	95.1	57.1	79	39.1	> 100	> 100	> 100										
CC(C)(C)OC(=O)N(CCCCN(CCCn1c2c(c3ccccc3c1=O)C(=O)c1ccccc1-2)C(=O)OC(C)(C)C)CCCn1c2c(c3ccccc3c1=O)C(=O)c1ccccc1-2	> 100	> 100	> 100	> 100	> 100		33.1	> 100	> 100		69.6	14	> 100	> 100			54.6	8.79	31.3	> 100
CN[C@@H](C)C(=O)N[C@H](C(=O)N1CCC[C@H]1c1nc(C(=O)c2ccc(F)cc2)cs1)C1CCCCC1		> 100	46.1	57	45.6	> 84.6	17.6	38.4	42.8	32.8	25.5	19.4	20	22.3	20.5	16.1	20.5	0.838	19.4	

Structure (SMILES)	TGI (SK-OV-3 ovarian) [µM]	TGI (OVCAR-3 ovarian) [µM]	TGI (SF-295 CNS) [µM]	TGI (MOLT-4 leukemia) [µM]	TGI (TK-10 renal) [µM]	TGI (CCRF-CEM leukemia) [µM]	TGI (SF-539 CNS) [µM]	TGI (M14 melanoma) [µM]	TGI (HT29 colon) [µM]	TGI (MCF7 breast) [µM]	GI50 (OVCAR-3 ovarian) [µM]	GI50 (SF-295 CNS) [µM]	GI50 (MOLT-4 leukemia) [µM]	GI50 (TK-10 renal) [µM]	GI50 (CCRF-CEM leukemia) [µM]	GI50 (MCF7 breast) [µM]	GI50 (HT29 colon) [µM]	GI50 (SF-539 CNS) [µM]	GI50 (M14 melanoma) [µM]	GI50 (SK-OV-3 ovarian) [µM]
O=C1NC(c2ccccc2)(c2ccccc2)C(=O)N1CCCCCCN1C(=O)NC(c2ccccc2)(c2ccccc2)C1=O	77.2	> 100	81.3	> 100	77	> 100	81.3	> 100	> 100											
COC1CCCc2c(OC(C)=O)ccc(OC(C)=O)c21 (centres undefined)	> 100	> 100		> 100	> 100			> 100												
O=C(CCN1CCCC1)Nc1ccc2c(Nc3ccc(F)cc3)c3ccccc3nc2c1		4.21	2.32	3.02	3.97	11.1	3.05	3.53	3.72	1.89	1.68	1.05	0.133	1.66	0.274	0.147	0.734	1.61	1.64	
COc1ccccc1/C=C1\C(=O)N(C(=O)Cc2ccccc2)N=C1C		> 100	> 100	> 100	> 100	> 100	> 100	> 100	> 100											
CCOC(=O)c1ccc(N=Cc2ccc(N(CCC#N)S(=O)(=O)c3ccccc3)cc2C)cc1	> 100	> 100	> 100	> 100	> 100	> 100	> 100	> 100	> 100											
COc1ccc2nc3cc(Cl)ccc3c(Sc3ccc(N)cc3)c2c1	18.3	21.5	38.9	9.65	25.9	18.7	27.9	22												
CN(c1cccc(C(=O)O)c1)c1cc(O/N=[N+](\[O-])N(C)C)c([N+](=O)[O-])cc1[N+](=O)[O-]		> 100	> 100	> 100	> 100		> 100		> 100	> 100	> 100	> 100	> 100	> 100		59.8	> 100	> 100		
O=C(n1c2ccccc2c2n[nH]c(=S)nc21)C(F)(F)F	> 100	> 100	> 100	> 100	> 100	> 100	> 100	> 100	> 100											
CCCCC[C@@H]1CCCC2NC(CCCCCO[Si](c3ccccc3)(c3ccccc3)C(C)(C)C)CCC21 (some centres undefined)	36.8	30.7	31.3	29.4	34.8	26.7	29.8	27.3	16.1											
O=C1c2ccccc2C(=O)N1c1ccc(Cc2ccc(N3C(=O)c4ccccc4C3=O)cc2)cc1	> 100	> 100	> 100	> 100	> 100		> 100	> 100	> 100	> 100										
Cn1c(=O)nc2n(-c3ccc(Br)cc3)c3ccccc3nc-2c1=O	> 100	7.6	17	28.7	32.8	19.9	19.6	15.5	7.44											
CC(C)(C)c1cc(C2c3cc4c(cc3OC(O)(CO)C2C(=O)O)OCO4)cc(C(C)(C)C)c1O (centres undefined) (tested in a mixture with another compound)	45.8	18.9	30.3	20.3	45.4	21.9	25.8	30.7	27.2											
N#CN1CC[C@@H]2CC3(CCC2C1)OCCO3 (some centres undefined)	> 100	> 100	> 100	> 100	> 100	> 100	> 100	> 100	> 100											
O=C(c1ccccc1)c1nc2c(Cl)ccc(Cl)c2cc1C(Br)Br		3.15	2.6	7.13	2.81	1.33	1.76	2.89												
CC(C)(C)C1=CC(=N/N=c2\scc(-c3ccccc3)n2Cc2ccccc2)C=C(C(C)(C)C)C1=O		> 100	> 100	> 100		> 100	> 100	> 100	> 100											
O=C(NCCCN1CCN(CCCNC(=O)c2cccc3ccccc23)CC1)c1cccc2ccccc12	57.6	> 100	> 100	> 100	> 100	> 100	> 100	> 100	> 100											
O=C(Nc1cc(Cl)c(I)c(Cl)c1)C(F)(F)F	58.9	81.2	> 100	82.7		66.4		60.3	37.4	> 100										
CNC(=O)[C@H](Cc1c[nH]c2ccccc12)NC(=O)[C@@H](CC(=O)NO)CC(C)C	> 25	> 25	> 25	> 25	> 25		> 25	> 25	> 25	> 25	> 25	> 25	> 25	> 25		> 25	> 25	> 25	> 25	> 25
O=c1[nH]c2nc3ccccc3c(=O)n2nc1Cc1ccccc1	> 100	> 100	> 100	> 100		> 100	> 100	> 100	> 100											
C=C1C(=O)OC2CC1C(OC(=O)/C=C/c1ccccc1)C/C(C)=C/CC/C(C)=C/CCC2(C)O (centres undefined)	5.46	2.87	3.01	> 39.8	3.17		2.83	3.14	2.99	1.96										
